“Also recorded” adds a separate entry of the source. Structures can show the parent of a compound that is named as a salt.
Columns and labels:
[1] = biological target: BRAF V600E (Homo sapiens, UniProt P15056, V600E); assay: HiBiT cellular BRAF^V600E degradation assay; type: cell-based; settings: A375.10 cells, 24 h; for DC50: concentration at which 50% of total cellular BRAF^V600E is degraded; for Emax: residual protein remaining in the cell, read-out: HiBit 24 h Emax
[2] = tested on: ERK phosphorylation; assay: Western blot of ERK phosphorylation in A375 cells expressing NRAS^Q61K; type: cell-based; settings: 24 hours
[3] = tested on: A375 cells expressing the oncogenic NRAS^Q61K mutation; assay: Cellular growth over time of A375 cells expressing NRAS^Q61K; type: cell-based
[4] = tested on: A375 NRAS^Q61K mutant melanoma cell line xenograft; assay: In vivo efficacy in A375 NRAS^Q61K mutant melanoma xenograft; design: species or system BALBc/Nude mice; settings: oral gavage, with MEKi trametinib 0.1 mg/kg BID
[5] = tested on: H1666 cells endogenously expressing the class III BRAF mutation G466V; assay: Cellular growth over time in H1666 cells; type: cell-based; settings: G466V
[6] = tested on: phospho-ERK (T202/Y204); assay: HTRF phospho-ERK (T202/Y204) inhibition assay in A375 cells; type: cell-based; settings: Homo sapiens, A-375, 24 hrs, mean of at least n = 3, read-out: pERK IC50
Protocol: (§1) A375 (harboring BRAF homozygous V600E mutation) were purchased from ATCC. DMEM Medium without phenol red and supplemented with L-glutamine was purchased from Corning (Corning, NY, USA). Advanced phospho-ERK (Thr202/Tyr204) HTRF assay kits were purchased from Cisbio (Bedford, MA, USA). Cell culture flasks and 384-well microplates were acquired from VWR (Radnor, PA, USA) or Corning (Corning, NY, USA).
(§2) Degradation of activated phospho-ERK (T202/Y204) protein was determined based on quantification of FRET signal using the Advanced phospho-ERK (T202/Y204) HTRF assay kit. Test compounds were added to the 384-well plate from a top concentration of 10 μM with 11 points, half log titration in duplicates. A375 cells were added into 384-well plates at a cell density of 8000 cells per well, respectively. The plates were kept at 37° C. with 5% CO2 for 24 hours. Cells treated in the absence of the test compound were the negative control. Positive control was set by wells containing all reagents but no cells. FRET signal was acquired on EnVision™ Multilabel Reader (PerkinElmer, Santa Clara, CA, USA).

[7] = tested on: A375 cells; assay: CellTiter-Glo cell growth inhibition, A375 cells; type: cell-based; settings: Homo sapiens, A-375, 72 hr, mean of at least n = 3
Protocol: (§3) A375 cell viability was determined based on quantification of ATP using CellTiter-Glo® 2.0 luminescent Assay kit, which signals the presence of metabolically-active cells. Briefly, test compound was added to 384-well plates at a top concentration of 10 μM with 14 points, half log titration in duplicates. A375 cells were seeded into the 384-well plates in DMEM medium containing 10% FBS at a cell density of 250 cells per well. Cells treated in the absence of the test compound were the negative control, normalized to 100% viability, and cells treated in the absence of CellTiter-Glo® 2.0 were the positive control, normalized to 0% viability. A375 cells were incubated at 37° C. with 5% CO2 for 72 hr. CellTiter-Glo reagent was then added to the cells and Luminescence was acquired on EnVision™ Multilabel Reader (PerkinElmer, Santa Clara, CA, USA).

[8] = tested on: phospho-ERK (T202/Y204); assay: HTRF phospho-ERK (T202/Y204) assay in A375-NRAS^Q61K cells; type: cell-based; settings: 24 hrs, mean of at least n = 3, read-out: pERK IC50
Description: as §1, with “A375-NRAS^Q61K cells” for “A375”, “V600E mutation and NRAS homozygous Q61K” for “V600E”
as §2, with “A375-NRAS^Q61K” for “A375”, “2000” for “8000”, “well.” for “well, respectively.”

[9] = tested on: A375-NRAS^Q61K cells; assay: CellTiter-Glo growth inhibition assay, A375-NRAS^Q61K cells; type: cell-based; settings: 96 hr, mean of at least n = 3
Protocol: A375-NRAS^Q61K cells (harboring BRAF homozygous V600E mutation and NRAS homozygous Q61K mutation) were purchased from ATCC. DMEM Medium (without phenol red and supplemented with L-glutamine) was purchased from Corning (Corning, NY, USA). CellTiter-Glo® 2.0 Assay was purchased from Promega (Madison, WI, USA). Cell culture flasks and 384-well microplates were acquired from VWR (Radnor, PA, USA) or Corning (Corning, NY, USA).
as §3, with “A375-NRAS^Q61K cell viability” for “A375 cell viability”, “in duplicates. A375-NRAS^Q61K cells were” for “in duplicates. A375 cells were”, “CO2 for 96 hr. CellTiter-Glo” for “CO2 for 72 hr. CellTiter-Glo”

Chain of BRAF V600E (P15056 whole entry V600E): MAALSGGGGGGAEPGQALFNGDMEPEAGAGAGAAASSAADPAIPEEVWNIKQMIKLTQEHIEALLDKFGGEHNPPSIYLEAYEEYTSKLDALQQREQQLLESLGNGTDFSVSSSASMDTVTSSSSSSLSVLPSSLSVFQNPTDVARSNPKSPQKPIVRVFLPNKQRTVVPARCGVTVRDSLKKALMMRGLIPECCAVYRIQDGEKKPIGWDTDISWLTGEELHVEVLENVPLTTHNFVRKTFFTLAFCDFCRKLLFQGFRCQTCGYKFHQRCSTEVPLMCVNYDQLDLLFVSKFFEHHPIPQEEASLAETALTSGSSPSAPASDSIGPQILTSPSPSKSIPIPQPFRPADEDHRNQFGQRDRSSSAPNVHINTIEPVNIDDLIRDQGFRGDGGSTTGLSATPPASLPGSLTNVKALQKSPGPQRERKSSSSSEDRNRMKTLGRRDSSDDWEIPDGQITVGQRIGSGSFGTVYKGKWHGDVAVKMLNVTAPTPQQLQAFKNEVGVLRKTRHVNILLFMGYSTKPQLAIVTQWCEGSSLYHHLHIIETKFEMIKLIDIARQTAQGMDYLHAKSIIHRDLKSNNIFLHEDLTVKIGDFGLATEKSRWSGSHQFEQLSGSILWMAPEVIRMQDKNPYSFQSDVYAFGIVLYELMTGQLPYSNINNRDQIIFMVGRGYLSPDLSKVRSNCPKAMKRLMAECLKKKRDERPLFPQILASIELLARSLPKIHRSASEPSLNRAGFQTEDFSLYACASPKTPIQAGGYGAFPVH

CCN(C)S(=O)(=O)Nc1ccc(F)c(Oc2ccc3ncc(C4CCC5(CCN(C(=O)CN6CCC(c7ccc(NC8CCC(=O)NC8=O)cc7F)CC6)CC5)C4)nc3c2)c1C#N (stereo not shown) [Example 220, 7-[2-cyano-3-[[ethyl(methyl)sulfamoyl]amino]-6-fluorophenoxy]-2-[8-[2-[4-[4-[(2,6-dioxopiperidin-3-yl)amino]-2-fluorophenyl]piperidin-1-yl]acetyl]-8-azaspiro[4.5]decan-3-yl]quinoxaline] gave a DC50 [1] of 47 nM and an Emax [1] of 10.5%.
For CCN(C)S(=O)(=O)Nc1ccc(F)c(Oc2ccc3ncc(C4COC5(CCN(C(=O)CN6CCC(c7ccc(NC8CCC(=O)NC8=O)cc7F)CC6)CC5)C4)nc3c2)c1C#N (stereo not shown) [Example 221, 3-[7-[2-cyano-3-[[ethyl(methyl)sulfamoyl]amino]-6-fluorophenoxy]quinoxalin-2-yl]-8-[2-[4-[4-[(2,6-dioxopiperidin-3-yl)amino]-2-fluorophenyl]piperidin-1-yl]acetyl]-1-oxa-8-azaspiro[4.5]decane], the DC50 [1] was 30.5 nM and the Emax [1] was 10.3%.
CCN(C)S(=O)(=O)Nc1ccc(F)c(Oc2ccc3ncc([C@@H]4COC5(CCN(C(=O)CN6CCC(c7ccc(NC8CCC(=O)NC8=O)cc7F)CC6)CC5)C4)nc3c2)c1C#N (stereo partly drawn) [Example 223, (3R)-3-[7-[2-cyano-3-[[ethyl(methyl)sulfamoyl]amino]-6-fluorophenoxy]quinoxalin-2-yl]-8-[2-[4-[4-[(2,6-dioxopiperidin-3-yl)amino]-2-fluorophenyl]piperidin-1-yl]acetyl]-1-oxa-8-azaspiro[4.5]decane] gave a DC50 [1] of 29.6 nM and an Emax [1] of 10.5%.
Work on CCN(C)S(=O)(=O)Nc1ccc(F)c(Oc2ccc3ncc([C@H]4COC5(CCN(C(=O)CN6CCC(c7ccc(NC8CCC(=O)NC8=O)cc7F)CC6)CC5)C4)nc3c2)c1C#N (stereo partly drawn) [Example 224, (3S)-3-[7-[2-cyano-3-[[ethyl(methyl)sulfamoyl]amino]-6-fluorophenoxy]quinoxalin-2-yl]-8-[2-[4-[4-[(2,6-dioxopiperidin-3-yl)amino]-2-fluorophenyl]piperidin-1-yl]acetyl]-1-oxa-8-azaspiro[4.5]decane] yielded a DC50 [1] of 22.9 nM and an Emax [1] of 9.09%.
Compound CCN(C)S(=O)(=O)Nc1ccc(F)c(Oc2ccc3ncn([C@@H]4COC5(CCN(C(=O)CC6(O)CCN(c7cc8c(cc7F)c(N7CCC(=O)NC7=O)nn8C)CC6)CC5)C4)c(=O)c3c2)c1C#N [Example 228, (3S)-3-[6-[2-cyano-3-[[ethyl(methyl)sulfamoyl]amino]-6-fluoro-phenoxy]-4-oxo-quinazolin-3-yl]-8-[2-[1-[3-(2,4-dioxohexahydropyrimidin-1-yl)-5-fluoro-1-methyl-indazol-6-yl]-4-hydroxy-4-piperidyl]acetyl]-1-oxa-8-azaspiro[4.5]decane] has a DC50 [1] of 18.6 nM and an Emax [1] of 7.82%.
Work on CCN(C)S(=O)(=O)Nc1ccc(F)c(Oc2ccc3ncn(CCC4CCN(C(=O)CN5CCC(c6ccc(NC7CCC(=O)NC7=O)cc6)CC5)CC4)c(=O)c3c2)c1C#N (stereo not shown) [Example A1, 6-[2-cyano-3-[[ethyl(methyl)sulfamoyl]amino]-6-fluoro-phenoxy]-3-[2-[1-[2-[4-[4-[(2,6-dioxo-3-piperidyl)amino]phenyl]-1-piperidyl]acetyl]-4-piperidyl]ethyl]-4-oxo-quinazoline] yielded a DC50 [1] of 78 nM and an Emax [1] of 23%.
With CCN(C)S(=O)(=O)Nc1ccc(F)c(Oc2ccc3ncn(CCC4CCN(CC(=O)N5CCC(c6ccc(NC7CCC(=O)NC7=O)cc6)CC5)CC4)c(=O)c3c2)c1C#N (stereo not shown) [Example A2, 6-[2-cyano-3-[[ethyl(methyl)sulfamoyl]amino]-6-fluoro-phenoxy]-3-[2-[1-[2-[4-[4-[(2,6-dioxo-3-piperidyl)amino]phenyl]-1-piperidyl]-2-oxo-ethyl]-4-piperidyl]ethyl]-4-oxo-quinazoline, 2,2,2-trifluoroacetic acid salt] the DC50 [1] was 165 nM and the Emax [1] was 26%.
Work on N#Cc1c(NS(=O)(=O)C2CCCC2)ccc(F)c1Oc1ccc2ncn(CCC3CCN(C(=O)CN4CCC(c5ccc(NC6CCC(=O)NC6=O)cc5)CC4)CC3)c(=O)c2c1 (stereo not shown) [Example A3, N-[2-cyano-3-[3-[2-[1-[2-[4-[4-[(2,6-dioxo-3-piperidyl)amino]phenyl]-1-piperidyl]acetyl]-4-piperidyl]ethyl]-4-oxo-quinazolin-6-yl]oxy-4-fluoro-phenyl]cyclopentanesulfonamide 2,2,2-trifluoroacetic acid salt] yielded a DC50 [1] of 242 nM and an Emax [1] of 24%.
In the case of COC(=O)N[C@@H](C)CNc1nccc(-c2cn(C(C)C)nc2-c2cc(Cl)cc(NS(C)(=O)=O)c2F)n1 [encorafenib, reference compound], the “ERK phosphorylation, in combination with trametinib” value ([2]; with 1 nM trametinib) is reported as “unable to significantly suppress”, the “ERK phosphorylation, alone” value ([2]; without trametinib) is reported as “unable to significantly suppress” and the cell growth inhibition [3] is reported as “does not inhibit cell growth”. For the same compound, the “tumor response, in combination with trametinib” value [4] was “no activity”, the cell growth inhibition [5] was “no activity; also recorded: does not inhibit cell growth” and the IC50 [6] was 2.1 nM. It also gave a GI50 [7] of 8 nM, an IC50 [8] of 31 nM and a GI50 [9] of 911 nM.
